Measured values: PMC12281424, “A Rac-specific competitive inhibitor of guanine nucleotide binding reduces metastasis in triple-negative breast cancer” (Cell Reports Medicine, 2025)

Tests used:
RAC1 [1] = molecular target: T1, RAC1 (Mus musculus, UniProt P63001); test: RAC-GTP pull-down assay, EGF-stimulated NIH/3T3 fibroblasts; type: cell-based; conditions: 10^-5 M
T1 construct: endogenous in cells; host or cells: NIH/3T3 fibroblasts (ATCC CRL-1658), EGF-stimulated
Method: Figure 2 Identification of a new RAC1 inhibitor (A) Effect of A41 and NSC23766 on ruffle formation (white arrows) induced by EGF (10 ng/mL) in NIH 3T3 cells in serum-free culture medium (CTL). Inhibitors were added at indicated concentration 1 h prior to EGF stimulation. To assess cytoskeleton organization, cells were incubated with Alexa Fluor 488 phalloidin to visualize F-actin. Results shown are representative of 3 independent experiments. Corresponding concentration-response curves have been established by counting the percentages of cells with ruffles (scale bars: 10 μm). (B) Immunoblot analysis and associated quantification of RAC-GTP level and total RAC expression in NIH 3T3 cells stimulated by EGF (10 ng/mL, 5 min) and pre-incubated or not (−) with NSC23766, A41, or A415 at 10^−5 M for 1 h (∗∗∗p < 0.001 vs. controls without EGF stimulation, ^###p < 0.001 vs. controls with EGF stimulation) (N > 3). (C) Representative surface plasmon resonance (SPR) sensograms of binding of immobilized RAC1 with increasing concentrations of A41 with or without EDTA (20 mM) (N > 3). (D) Representative in vitro nucleotide exchange catalyzed by the DH-PH of TIAM (10 nM) measured by the binding of fluorescent mant-GTP (1 μM) to RAC1 (0.5 μM, preloaded with GDP) in the presence of indicated concentrations of A41 (out of N = 6). Dotted lines correspond to the experimental curves, and continuous lines represent the fit of experimental points. (E) Kobs and Kmax were determined in each condition (N = 6). (F) Predicted binding modes of A4 to the NSC23766-binding site (left) or the GDP-binding pocket of RAC1 (right). In the NSC23766-binding site of RAC1, the compound A4 (carbon atoms in blue) makes 2 hydrogen bonds (green dotted line) with Ser71 (S71) and 10 hydrophobic interactions (pink dotted line) with Ala3 (A3), Lys5 (K5), Val36 (V36), Trp56 (W56), Tyr64 (Y64), and Leu67 (L67) leading to a docking score of −6.03 kcal/mol. The GDP molecule is shown with fine line. The P loop is shown in yellow, the switch 1 in orange, and the switch 2 in green. […]
Pull-down assay using GST-PBD fusion proteins were performed on NIH-3T3 lysates to assess RAC1 activity as previously described.[63] The precipitated active RAC was subjected to SDS-PAGE and detected by immunoblot with anti-RAC1 antibody (BD biosciences) (dilution 1/1000). […]
(§1) screening molecules (10^-5 M) on NIH/3T3 cell adhesion (xCELLingence Real-time cellanalysis, Agilent), migration (CYTOO Mobility plates) and proliferation (xCELLingence Real-time cell analysis, Agilent) .The level of RAC activation is determinedby the detection of RAC-GTP (pull-down assay) in NIH/3T3 cell treated with EGF (10 ng/mL) and the differentmolecules and normalize to the level of RAC activity measuredin the presenceof the reference RAC inhibitor EHT1864.

NIH/3T3 cell adhesion = test: Cell adhesion assay (xCELLigence impedance); type: cell-based; conditions: 10^-5 M
Method: NIH3T3cells (10000/well) were seeded in a 96 well plate microtiter xCELLigence assay plate (E-Plate) (ACEA Biosciences Inc.) and placed on the Real-time xCELLigence Cell Analyzer (Roche Applied Science) platform at 37°C to measure the “cell index” every 5 min for a period of 6 h. The cell index unit is defined as (Rn − Rb)/15. Rn is the cell electrode impedance of the well when it contains cells. Rb is the background impedance of the well with the media alone.
as §1, with “Supplementary Fig. 3: Example of one pharmacophore model used for virtual screening. (a) The pharmacophore model shown was created based on RAC1 (grey) and NSC23766 (orange) interaction. […] (b) Impact of different screening” for “screening”
(§2) Supplementary Fig. 4: A41 inhibits RAC-dependent cell functions. (a) Representative records of single NIH/3T3 cell migration on micropatterned fibronectin lines (CYTOO Mobility plates) in the absence (Control)and presenceA41 at 10^-5 M (left panel) and corresponding quantification of migration speed (right panel) (scale bar: 20µm). […] (b) Typical curves showing the cell index representing the adhesion of NIH/3T3 fibroblast (xCELLingence Real-time cell analysis, Agilent) under control condition (Control) and pre-treated with 10 µM A41 or NSC23766 (left panel) and corresponding quantification of cell adhesion speed (right panel). […]

NIH/3T3 cell migration = test: 1D cell migration (CYTOO plates); type: cell-based; conditions: 10^-5 M
Method: NIH3T3cells (1000/well) were seeded in a 96 well plate with […] fibronectin stripes (CytooPlates Motility, CYTOO) in medium with 1% SVF and allowed to spread for 4 h before capturing time-lapse images for 24 h (image/10 min) on a Widefield Leica DMI 6000B drove with Metamorph software. Cells speed was measured with ImageJ software.
Supplementary Fig. 3: Example of one pharmacophore model used for virtual screening. (a) The pharmacophore model shown was created based on RAC1 (grey) and NSC23766 (orange) interaction. The pharmacophore model is formed by two hydrogenbond acceptor(HBA)features,one orientedtowardsthe hydroxylgroup of Ser71 (S71) and the other towards the amine group of Gln74 (Q74), one hydrogen bond donor (HBD) feature pointed to the oxygenatom of Leu70 (L70) and two hydrophobic features (HY) located on certain carbon atoms of NSC23766 and facing residues Val36 (V36), Ala59 (A59), Tyr64 (Y64) and Leu67 (L67). The spheres correspond to locationconstraint. […] (b) Impact of different screening molecules (10^-5 M) on NIH/3T3 cell adhesion (xCELLingence Real-time cellanalysis, Agilent), migration (CYTOO Mobility plates) and proliferation (xCELLingence Real-time cell analysis, Agilent) .The level of RAC activation is determinedby the detection of RAC-GTP (pull-down assay) in NIH/3T3 cell treated with EGF (10 ng/mL) and the differentmolecules and normalize to the level of RAC activity measuredin the presenceof the reference RAC inhibitor EHT1864.
as §2

[2] = tested on: NIH/3T3 cell proliferation; test: Cell proliferation (xCELLigence); type: cell-based; conditions: 10^-5 M
From the text: Supplementary Fig. 3: Example of one pharmacophore model used for virtual screening. (a) The pharmacophore model shown was created based on RAC1 (grey) and NSC23766 (orange) interaction. The pharmacophore model is formed by two hydrogenbond acceptor(HBA)features,one orientedtowardsthe hydroxylgroup of Ser71 (S71) and the other towards the amine group of Gln74 (Q74), one hydrogen bond donor (HBD) feature pointed to the oxygenatom of Leu70 (L70) and two hydrophobic features (HY) located on certain carbon atoms of NSC23766 and facing residues Val36 (V36), Ala59 (A59), Tyr64 (Y64) and Leu67 (L67). The spheres correspond to locationconstraint. The pharmacophoremodel was completedby thirteen exclusion spheres centered on the main residues of RAC1 defining the binding site. The P loop, the switch 1 and the switch 2 are shown in yellow, orange and green respectively. (b) Impact of different screening molecules (10^-5 M) on NIH/3T3 cell adhesion (xCELLingence Real-time cellanalysis, Agilent), migration (CYTOO Mobility plates) and proliferation (xCELLingence Real-time cell analysis, Agilent) .The level of RAC activation is determinedby the detection of RAC-GTP (pull-down assay) in NIH/3T3 cell treated with EGF (10 ng/mL) and the differentmolecules and normalize to the level of RAC activity measuredin the presenceof the reference RAC inhibitor EHT1864.

[3] = tested on: RAC1-GTP levels in MDA-MB-468 Luc cells; test: RAC-GTP immunofluorescence; type: cell-based; conditions: 10^-5 M, 1 h
Method: Luciferase (Luc, green) was used to detect the cells. […] (C) Quantification of colony number of indicated cancer cell lines in the presence of A41 (10 μM) expressed as the percentage of control in the absence of A41. […] (D) Immunoblot analysis and corresponding quantification of AKT and P44/42 expression and phosphorylation (pAKT, p44/42) in MDA-MB-468 Luc cells in the absence (−) and presence of NSC23766 or A41 (1 h at 10^−5 M). […] (E) 3D invasion assay of MDA-MB-468 Luc and cancer-associated fibroblasts (CAFs) and corresponding quantification (scale bars: 200 μm).
After indicated treatments, cells were fixed with 4% paraformaldehyde and permeabilized in PBS 0.5% Triton X-100. To assess RAC1 activity, cells were then incubated with RAC-GTP antibody (26903, NewEast Biosciences, King of Prussia, Pa) (dilution 1/500) overnight at room temperature, followed by secondary Alexa 568-labeled anti-mouse antibody (dilution 1/1000). Cancer cells were detected with firefly luciferase antibody (ab21176, Abcam) (dilution 1/500) overnight at room temperature, followed by secondary Alexa 488-labeled anti-rabbit antibody (dilution 1/1000). To assess cytoskeleton organization, cells were incubated with Alexa Fluor 488 phalloidin (A12379, Invitrogen) to visualize F-actin. After staining, cells were mounted in Prolong gold antifade reagent with DAPI and images were captured by a fluorescence microscope.

RAC1 [4] = molecular target: RAC1 (Homo sapiens, UniProt P63000); test: Nucleotide exchange kinetics (mant-GTP/mant-GDP fluorescence); type: biochemical; set-up: Full-length RAC1 carrying a 6xHis tag in C-terminus was purified as previously described; 6xHis (C); made in house
Method: Figure 2 Identification of a new RAC1 inhibitor (A) Effect of A41 and NSC23766 on ruffle formation (white arrows) induced by EGF (10 ng/mL) in NIH 3T3 cells in serum-free culture medium (CTL). Inhibitors were added at indicated concentration 1 h prior to EGF stimulation. To assess cytoskeleton organization, cells were incubated with Alexa Fluor 488 phalloidin to visualize F-actin. Results shown are representative of 3 independent experiments. Corresponding concentration-response curves have been established by counting the percentages of cells with ruffles (scale bars: 10 μm). (B) Immunoblot analysis and associated quantification of RAC-GTP level and total RAC expression in NIH 3T3 cells stimulated by EGF (10 ng/mL, 5 min) and pre-incubated or not (−) with NSC23766, A41, or A415 at 10^−5 M for 1 h (∗∗∗p < 0.001 vs. controls without EGF stimulation, ^###p < 0.001 vs. controls with EGF stimulation) (N > 3). (C) Representative surface plasmon resonance (SPR) sensograms of binding of immobilized RAC1 with increasing concentrations of A41 with or without EDTA (20 mM) (N > 3). (D) Representative in vitro nucleotide exchange catalyzed by the DH-PH of TIAM (10 nM) measured by the binding of fluorescent mant-GTP (1 μM) to RAC1 (0.5 μM, preloaded with GDP) in the presence of indicated concentrations of A41 (out of N = 6). Dotted lines correspond to the experimental curves, and continuous lines represent the fit of experimental points. (E) Kobs and Kmax were determined in each condition (N = 6). (F) Predicted binding modes of A4 to the NSC23766-binding site (left) or the GDP-binding pocket of RAC1 (right). In the NSC23766-binding site of RAC1, the compound A4 (carbon atoms in blue) makes 2 hydrogen bonds (green dotted line) with Ser71 (S71) and 10 hydrophobic interactions (pink dotted line) with Ala3 (A3), Lys5 (K5), Val36 (V36), Trp56 (W56), Tyr64 (Y64), and Leu67 (L67) leading to a docking score of −6.03 kcal/mol. The GDP molecule is shown with fine line. The P loop is shown in yellow, the switch 1 in orange, and the switch 2 in green. In the GDP-binding pocket, A4 establishes 6 hydrogen bonds with Gly15 (G15), Lys16 (K16), Cys18 (C18), and Lys116 (K116), 1 carbon hydrogen bond with Lys116, and 9 hydrophobic interactions with Cys18, Ile33 (I33), Lys116, Leu119 (L119), and Leu160 (L160), resulting in a docking score of −10.32 kcal/mol.
Figure 3 Inhibitory mechanism of A41 (A–D) RAC1 activity was monitored by the change in mant-GTP/GDP fluorescence induced by its binding to or releasing from RAC1 (A–D). GDP-bound RAC1 (0.5 μM) was incubated with TRIO (10 nM) and the indicated concentrations of mant-GTP without and with A41 (5 μM) (A–C). Mant-GDP-bound RAC1 (0.5 μM) was incubated with TRIO (10 nM) and GTP (1 μM) without and with A41 (5 μM) (D). AU: arbitrary fluorescence units. All experiments were done in triplicate. Kmax and Kmin are expressed as mean ± SEM. ∗∗p < 0.01 and ∗∗∗p < 0.001 vs. TRIO. (E) Deconvoluted mass spectra generated from crude mass spectrum analyses to evaluate RAC1 photolabeling with [N3]-A41 by LC-HRMS on native protein. (F) Representative mass spectra of both labeled and unlabeled […] peptide during LC-HRMS analysis of RAC1 photolabeling with [N3]-A41 after trypsin digestion. (G) Predicted binding mode of A41 to the GDP-binding pocket of RAC1. Compound A41 (orange) makes 4 hydrogen bonds (green dotted line) with Lys16 (K16), Cys18 (C18), and Lys116 (K116), 2 carbon hydrogen bond (light green dotted line) with Val14 (V14) and Lys116 (K116), and 7 hydrophobic interactions (pink dotted line) with Cys18 (C18), Phe28 (F28), Lys116 (K116), Ala159 (A159), and Leu160 (L160). The P loop is shown in yellow, the switch 1 in orange, and the switch 2 in green.
Full-length RAC1 carrying a 6xHis tag in C-terminus was purified as previously described.[64] Full-length RAC2, RHOG, RHOA and CDC42 were purified as previously described.[64]^,[65] […]

Structure (SMILES) | Rac-GTP level (relative to EHT1864) (RAC1 [1]; EGF 10 ng/mL) | Adhesion (% inhib) (NIH/3T3 cell adhesion) | Migration (% inhib) (NIH/3T3 cell migration) | Proliferation (% ctrl) [2] | effect on RAC1 activity [3] | RAC1 activation (active GTP-bound RAC1) (RAC1 [1]; 1 h, EGF 10 ng/mL 5 min) | Inhibition of RAC1 activity (nucleotide exchange assay) (RAC1 [4])
O=c1cc(CN2CCOCC2)occ1OCCCCCSc1ccnc2cc(C(F)(F)F)ccc12 [EHT1864] | 1.00 | 32% | 35% | 101% | no | – | –
CCN(CC)CCCC(C)Nc1nc(C)cc(Nc2ccc3nc(C)cc(N)c3c2)n1 (centres unmarked) [NSC23766] | – | 34% | 20% | 131% | little effect | no significant effect | –
COc1ccc(OC)c(NS(=O)(=O)c2ccc(NC(=O)CCSc3ccc(N=[N+]=[N-])cc3)cc2)c1 [[N3]-A41] | – | – | – | – | – | – | 46%
